In article PMC7948456, “Kinetics of cytochrome P450 3A4 inhibition by heterocyclic drugs defines a general sequential multistep binding process” (The Journal of Biological Chemistry, 2020):

Legend:
P450 3A4 [1] = biological target: T1, P450 3A4 (Homo sapiens, UniProt P08684); settings: P450 enzyme system + NADPH, UPLC-MS
P450 3A4 [2] = biological target: T2, P450 3A4 (Homo sapiens, UniProt P08684, form not given); experiment: in vitro; settings: P450 3A4 reconstituted with cholate/phospholipid mixture, probe 7-OBz quinoline (7-benzoyl quinoline) O-debenzylation, 20 μM
T2 sequence (P08684 13-503): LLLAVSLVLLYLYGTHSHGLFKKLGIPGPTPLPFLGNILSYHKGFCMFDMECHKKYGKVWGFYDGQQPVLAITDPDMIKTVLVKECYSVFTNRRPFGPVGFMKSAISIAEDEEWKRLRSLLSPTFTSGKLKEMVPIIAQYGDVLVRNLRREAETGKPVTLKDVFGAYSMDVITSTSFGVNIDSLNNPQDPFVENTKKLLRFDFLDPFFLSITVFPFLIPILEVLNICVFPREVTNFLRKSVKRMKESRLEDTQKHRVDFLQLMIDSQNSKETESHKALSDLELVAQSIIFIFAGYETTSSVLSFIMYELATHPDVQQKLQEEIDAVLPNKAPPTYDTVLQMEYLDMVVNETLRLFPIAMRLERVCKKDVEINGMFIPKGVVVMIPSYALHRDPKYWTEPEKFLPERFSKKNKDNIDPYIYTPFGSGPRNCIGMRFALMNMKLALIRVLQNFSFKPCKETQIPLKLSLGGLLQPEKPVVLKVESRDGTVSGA
T2 sequence (P00388 2-678 partner): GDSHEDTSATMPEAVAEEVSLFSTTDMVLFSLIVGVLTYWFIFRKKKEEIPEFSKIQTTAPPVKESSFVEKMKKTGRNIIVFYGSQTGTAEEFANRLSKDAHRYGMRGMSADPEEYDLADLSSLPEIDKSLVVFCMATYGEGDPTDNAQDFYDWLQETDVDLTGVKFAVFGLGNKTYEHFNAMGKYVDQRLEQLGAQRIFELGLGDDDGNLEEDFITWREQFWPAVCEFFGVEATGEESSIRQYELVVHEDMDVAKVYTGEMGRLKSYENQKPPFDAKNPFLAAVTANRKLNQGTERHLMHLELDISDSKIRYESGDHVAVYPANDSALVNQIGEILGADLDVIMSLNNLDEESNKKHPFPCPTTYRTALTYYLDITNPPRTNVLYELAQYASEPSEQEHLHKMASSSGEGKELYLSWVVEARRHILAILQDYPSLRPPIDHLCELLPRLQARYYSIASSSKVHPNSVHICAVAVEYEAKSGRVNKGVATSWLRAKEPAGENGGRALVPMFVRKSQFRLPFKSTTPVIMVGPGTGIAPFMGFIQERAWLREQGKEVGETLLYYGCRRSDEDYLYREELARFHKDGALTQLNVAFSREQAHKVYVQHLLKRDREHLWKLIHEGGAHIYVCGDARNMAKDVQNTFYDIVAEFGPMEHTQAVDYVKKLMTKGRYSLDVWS
T2 sequence (P00167 2-134 partner): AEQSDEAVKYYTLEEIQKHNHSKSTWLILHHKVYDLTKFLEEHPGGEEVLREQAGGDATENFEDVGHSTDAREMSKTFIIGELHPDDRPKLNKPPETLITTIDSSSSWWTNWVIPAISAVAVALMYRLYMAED

P450 3A4 [3] = biological target: T2, P450 3A4; experiment: in vitro; settings: P450 3A4 reconstituted with cholate/phospholipid mixture, probe testosterone 6β-hydroxylation, 25 μM
P450 3A4 [4] = biological target: T1, P450 3A4; settings: inhibitor 0.02 μM
Experimental: Assays for the kinetics of inhibition were done using an OLIS RSM-1000 stopped-flow instrument (On-Line Instrument Systems) in the fluorescence mode (150 W xenon lamp), with the excitation monochromator set at 410 nm and using a >515 nm Oriel long-pass filter (Newport) with the sample photomultiplier tube. The slit widths were 6.32 mm, and the sample and reference voltages of the photomultiplier tubes were 700 and 350 V, respectively. Reactions were done at 23 °C for 180 s.
One syringe contained the P450 3A4 system (100 nM P450 3A4, 200 nM POR, and 100 nM cytochrome b5) along with the other components of a “5×” mixture (potassium Hepes (pH 7.4), reduced glutathione, sodium cholate, and phospholipid mixture) combined with the 5× buffer mixture (Hepes, MgCl2, and reduced glutathione) ([42]), plus NADPH and the inhibitor compound. Fluorescence data were collected for 3 min (at 23 °C) and moved to Excel, Prism, and KinTek Explorer programs for analysis.

P450 3A4 [5] = biological target: T1, P450 3A4; settings: equimolar inhibitor (50 nM), 160 μM 7-OBz quinoline added, 23 °C
P450 3A4 [6] = biological target: T1, P450 3A4; experiment: Inhibitor-binding kinetics (stopped-flow absorbance, SVD analysis); settings: P450 3A4 2 μM
Text: Equal volumes of buffered solutions of P450 3A4 and ligand were mixed, with a nominal dead time of 2 ms. Data were collected in the Show Pre-trigger Mode, with a short amount of data from the previous run (completed reaction) shown prior to mixing. […] From the accumulated spectra from each individual experiment (5–10 shots per concentration), generally the A420 data were subtracted from the A390 data points or A390 data were subtracted from the A425 data points, and the difference (ΔA390 − A420 or ΔA425 − A390 versus time) traces were averaged using the OLIS GlobalWorks software and fit to first-order fits (or used in SVD analysis; Figs. 9 and S7–S10).

[7] = inhibitor 15 μM, three-species 1→2→3 model

T1 sequence (P08684 13-503): as the sequence (P08684 13-503) above
T1 sequence (P00388 2-678 partner): as the sequence (P00388 2-678 partner) above
T1 sequence (P00167 2-134 partner): as the sequence (P00167 2-134 partner) above

**Q.** How did the “substrate for P450 3A4 (product formation)” value (P450 3A4 [1]) turn out when Clc1ccccc1C(c1ccccc1)(c1ccccc1)n1ccnc1 [Clotrimazole] was run?
**A.** is a substrate as well as an inhibitor of P450 3A4

**Q.** And the IC50 at 8 min (P450 3A4 [2])?
**A.** 110 nM

**Q.** What about the IC50 at 15 min (P450 3A4 [3]) of the same compound?
**A.** 110 nM

**Q.** What about the “Onset of 7-OBz quinoline O-debenzylation inhibition, Rate (k1)” value (P450 3A4 [4]) of the same compound?
**A.** 0.39 ± 0.03 s⁻¹

**Q.** What about the “lag phase in recovery of catalytic activity” value (P450 3A4 [5]) of the same compound?
**A.** ~45 s

**Q.** What about the “Spectral binding (SVD) k1” value (P450 3A4 [6]; [7]) of the same compound?
**A.** 0.092 ± 0.01 s

**Q.** And the “Spectral binding (SVD) k2” value (P450 3A4 [6]; [7])?
**A.** 0.016 ± 0.005 s⁻¹

**Q.** What about the “kobs, initial rate of binding (ΔA390 − A425)” value (P450 3A4 [6]; ligand 4 μM final) of the same compound?
**A.** 235 s⁻¹

**Q.** With CCC(C)n1ncn(-c2ccc(N3CCN(c4ccc(OCC5COC(Cn6cncn6)(c6ccc(Cl)cc6Cl)O5)cc4)CC3)cc2)c1=O (stereo not shown) [Itraconazole] as the compound, how does the IC50 at 8 min (P450 3A4 [2]) read?
**A.** 2020 nM

**Q.** And the IC50 at 15 min (P450 3A4 [3])?
**A.** 1490 nM
